Data from US9598346B2, “Enantioselective process for the preparation of enantiomers of sex pheromones” (COUNCIL OF SCIENTIFIC AND INDUSTRIAL RESEARCH, priority 2013, dated 2017).
Read-outs that look alike come from different tables or passages of the source.

Experiments:
[1] = tested on: male long tailed mealybugs (P. longispinus); assay: Field bioassay of the pheromone enantiomers and the racemate (delta sticky traps); assay type: in vivo, Pseudococcus longispinus; details: for attractiveness to male mealybugs (trap catches): traps 6 d + 11 d
Protocol: FIG. 1 depicts Male long tailed mealybugs caught in traps baited with each of the enantiomers of the pheromone, and the racemate. No mealybugs were caught in solvent treated controls.
(The field trials on vineyards were conducted with the help of Prof. Jocelyn Millar, University of California, Riverside, USA)
A field bioassay of the pheromone was conducted at a nursery in Bonsall, Calif., USA, in a 0.49 ha plot of Ruscus hypoglossum L. (plot coordinates: 33°17′18.36″ N, 117°16′55.61″ W elev 113 m) that was known to be infested with P. longispinus. The plot was divided into seven hoop houses (63 m long×7 m wide), six of which were used in this study. Each house (block) was covered in plastic with open ends. Airflow between houses was not restricted because the plastic cover began 1 m above the plant canopy. Four delta sticky traps were spaced every 12.5 m along a transect within each house, suspended directly above the ruscus canopy. Each trap contained an 11 mm gray rubber septum impregnated with a hexane solution of one of four treatments: solvent control, 5 μg of (S)-(+)-enantiomer, 5 μg of (R)-(−)-enantiomer, 10 μg of the racemate. Treatments were assigned randomly along each transect. Traps were replaced, and treatments were repositioned once after 6 d. Traps remained in place for another 11 d. Trap count data were analyzed by analysis of variance after √(x+0.5) transformation of the data to meet the assumptions of normality and equal variances. Differences among means were tested using Tukey's honestly significant differences (HSD) test. There was no significant interaction between the two sampling periods (date) and the treatments (F=3.23, df=2, 30, and P=0.054). Thus, data for each date were combined for the final analysis. There was both a significant effect of date (F=10.19, df=2, 32, P=0.0032) and treatment (F=130.04, df=2, 32, P<0.0001). Controls were not included in the analysis because their zero values and lack of variance violate the assumptions of ANOVA.

[2] = tested on: male mealybugs (long-tailed mealybug); details: 25 μg, field trials, cited from earlier work
[3] = 5 μg enantiomer on rubber septum in delta sticky trap, nursery plot of Ruscus hypoglossum

| SMILES | attractiveness to male mealybugs (trap catches) ([1]; 10 μg of the racemate on rubber septum in delta sticky trap) | attractiveness to male mealybugs and its duration ([2]; listed as racemic form of the pheromone) | attractiveness to male mealybugs and its duration ([2]; listed as racemic pheromone) | attractiveness to male mealybugs (trap catches) [1, 3] | inhibitory effect of the enantiomer on attraction ([1]; inferred from racemate (10 μg) versus pure enantiomer (5 μg)) | attractiveness to male mealybugs (trap catches) ([1]; 5 μg enantiomer on rubber septum in delta sticky trap, nursery plot of Ruscus hypoglossum, listed as (+)1) |
| --- | --- | --- | --- | --- | --- | --- |
| CC(=O)OCCC1(C)C=CCC1(C)C (racemic) [racemate (±1), 2-(1,5,5-trimethylcyclopent-2-en-1-yl) ethyl acetate] | as attractive as the pure enantiomer | sufficient to attract mealy bug for three months | highly attractive to male mealybugs for more than three months | – | – | – |
| CC(=O)OCC[C@]1(C)C=CCC1(C)C [(R)-(−)-enantiomer, (−) 2-(1,5,5-trimethylcyclopent-2-en-1-yl)ethyl acetate] | – | – | – | only slightly more attractive than solvent-treated controls | not inhibitory | – |
| CC(=O)OCC[C@@]1(C)C=CCC1(C)C [(S)-(+)-enantiomer, (+) 2-(1,5,5-trimethylcyclopent-2-en-1-yl)ethyl acetate] | – | – | – | highly attractive | – | more activity than racemic pheromone |
